Measurements as given in patent publication US9289467B2, “Compositions and methods for treating bone conditions” (Case Western Reserve University, priority 2011, dated 2016).
Entries after “also recorded” stand apart in the source; their conditions may differ.

B1: IL-6: exogenous IL-6 (R&D Systems), 20 ng/mL supplemented into BM cell cultures (protein, UniProt P08505 25-211, looked up)
Interleukin-6: FPTSQVRRGDFTEDTTPNRPVYTTSQVGGLITHVLWEIVEMRKELCNGNSDCMNNDDALAENNLKLPEIQRNDGCYQTGYNQEICLLKISSGLLEYHSYLEYMKNNLKDNKKDKARVLQRDTETLIHIFNQEVKDLHKIVLPTPISNALLTDKLESQKEWLRTKTIQFILKSLEEFLKVTLRSTRQT
B2: C5a: purified C5a (Cell Sciences), complement activation product, 50 ng/mL (protein, UniProt P06684 679-755, looked up)
C5a anaphylatoxin: NLHLLRQKIEEQAAKYKHSVPKKCCYDGARVNFYETCEERVARVTIGPLCIRAFNECCTIANKIRKESPHKPVQLGR
modifications: C5a anaphylatoxin

Key:
Assay type in all cases: cell-based
[1] = system: WT BM cells; experiment: OC differentiation of WT mouse BM cells stimulated with 1.25(OH)2 vitamin D3, TRAP staining; conditions: for TRAP-positive multinuclear cells / TRAP-positive mononuclear cells / numbers of resultant OC with exogenous C3a/C5a, result in words: WT BM cells; for TRAP-positive multinuclear cells / TRAP-positive mononuclear cells: 1×10^−8M 1.25(OH)2 vitamin D3, 50 μM of each antagonist, day 12; for TRAP-positive multinuclear cells: placebo 42±9; for TRAP-positive mononuclear cells: placebo 217±25; for OC generation / differentiation, result in words: WT mouse BM cells, antagonist during 1.25(OH)2 vitamin D3 stimulation, vs placebo; for numbers of resultant OC with exogenous C3a/C5a, result in words: 50 ng/mL C3a or C5a or both added daily
Procedure: (§1) Human BM cells from healthy donors were obtained from the Hematopoietic Stem Cell Core Facility of Case Western Reserve University. Murine BM cells were isolated from 8- to 12-week-old female mouse femurs and tibias, washed, and collected in 15-mL tubes in α-modified Eagle medium (MEM) containing 10% fetal bovine serum (FBS) that was heat-inactivated to eliminate complement activity. For OC differentiation, 2×10^6 BM cells were cultured in complete α-MEM medium in wells of a 24-well plate together with 1×10^−8M 1.25(OH)2 vitamin D3 (Cayman Chemical) as described before. Cultures were fed every 3 days with fresh media. For IL-6 or C5aR antagonist (C5aRA)/C3aR antagonist (C3aRA) supplementation experiments, 20 ng/mL IL-6 (R&D Systems) or 50 μM of each antagonist or both (C5aRA: JPE-1375; custom synthesized by Anaspec; C3aRA:SB290157; purchased from BMD Chemicals) were included in the medium. For C3a and/or C5a supplementation experiments, 50 ng/mL purified C3a (BD Biosciences) or C5a (Cell Sciences) or both were added daily into WT and C3^−/− BM-cell cultures. To neutralize IL-6 in samples treated with C3a/C5a, 10 ng/mL rat anti-IL-6 mAb (Clone 6B4 IGH 54; eBioscience) were added every 2 days. At day 12, differentiated OCs were identified by conventional tartrate-resistant acid phosphatase (TRAP) staining using a kit (Sigma-Aldrich) and following the protocol provided by the manufacturer. Total numbers of TRAP-positive cells in each well were counted under a microscope, and cells containing 3 or more nuclei were categorized as multinucleated.

[2] = system: human BM cells; experiment: OC differentiation of human BM cells stimulated with 1.25(OH)2 vitamin D3, TRAP staining; conditions: 1.25(OH)2 vitamin D3, with antagonists vs placebo
Procedure: as §1
To determine whether the above-observed results would apply to humans, we subjected normal human BM cells to OC differentiation conditions with and without the C3aR/C5aR antagonists, then analyzed the conditioned media for the presence of factor B, factor D, and C5, and quantified the resultant TRAP^+ cells.

[3] = system: C3^−/− BM cells; experiment: OC differentiation of C3^−/− mouse BM cells stimulated with 1.25(OH)2 vitamin D3, TRAP staining; conditions: for numbers of resultant OC with exogenous C3a/C5a, result in words: 50 ng/mL C3a or C5a or both added daily
Procedure: as §1

| Molecule | TRAP-positive multinuclear cells [1] [cells] | TRAP-positive mononuclear cells [1] [cells] | OC generation / differentiation, result in words [1] | OC differentiation (TRAP^+ cells), result in words [2] | numbers of resultant OC with exogenous C3a/C5a, result in words ([3]; C3^−/− BM cells) | numbers of resultant OC with exogenous C3a/C5a, result in words [1] | also measured |
| --- | --- | --- | --- | --- | --- | --- | --- |
| NC(N)=NCCC[C@H](NC(=O)COCC(c1ccccc1)c1ccccc1)C(=O)O [C3aRA, SB290157] | 29±7 | 156±23 | significantly inhibited OC generation | significant decrease in both mononuclear and multi-nuclear TRAP^+ cells | – | – | – |
| JPE-1375 [C5aRA] | 34±8 | 176±29 | did not reach a statistical significance | decrease in both cell types, but only the mono-nuclear cells were at the level of statistical significance | – | – | OC generation / differentiation, result in words ([1]; listed as JPE-1375): inhibits mouse and human OC differentiation in vitro; OC differentiation (TRAP^+ cells), result in words ([2]; listed as JPE-1375): inhibits mouse and human OC differentiation in vitro |
| C3a: purified C3a (BD Biosciences), complement activation product, 50 ng/mL | – | – | – | – | increased the numbers of resultant OC | increased the numbers of resultant OC | – |
| B1 | – | – | – | – | – | – | OC differentiation with IL-6 supplementation, result in words ([3]; C3^−/− BM cell cultures supplemented with IL-6): rescued the C3^−/− phenotype; also recorded: restored their OC differentiation capabilities; TRAP-positive cells (multinucleated) ([3]; C3^−/− BM cells, 20 ng/mL IL-6 daily, 12 days, without IL-6 31±4): 52±9; TRAP-positive cells (mononuclear) ([3]; C3^−/− BM cells, 20 ng/mL IL-6 daily, 12 days, without IL-6 108±17): 249±39; Trap^+ Multi-Nucl. Cells/Well ([3]; Table 2, C3^−/− BM cells + IL-6, C3^−/− without IL-6 31 ± 4): 52 ± 9 Cells/Well; Trap^+ Mono-Nucl. Cells/Well ([3]; Table 2, C3^−/− BM cells + IL-6, C3^−/− without IL-6 108 ± 17): 249 ± 39 Cells/Well |
| B2 | – | – | – | – | did not appear to have a significant effect | did not appear to have a significant effect | – |
